From patent publication US10219516B2, “Molecules having pesticidal utility, and intermediates, compositions, and processes, related thereto” (priority 2015, dated 2019)

How the values were obtained:
Format in all cases: in vivo
[1] = test system: Yellow Fever Mosquito (Aedes aegypti, AEDSAE); assay: Bioassay on Yellow Fever Mosquito (YFM), 96-well plate larval assay; conditions: Yellow Fever Mosquito, 96-well plate larval assay
Method in brief: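 Aedes aegypti larvae (about 1 day old) in liver-powder water were added to plates dispensed from DMSO master plates (4000 ppm stock) diluted with 90:10 water/acetone; six replicate plates per master. Lidded plates were held at room temperature for 3 days, then each well was scored for mortality.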

[2] = test system: Beet Armyworm (Spodoptera exigua, LAPHEG); assay: Bioassay on Beet Armyworm (BAW), 128-well diet tray assay; conditions: Beet Armyworm, 128-well diet tray assay, read-out: BAW rating
Method in brief: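 Test molecule dissolved in acetone-water 90:10 is applied at 50 μg/cm^2 onto artificial diet and allowed to dry. Second instar larvae, one to five per well, are then added, and trays are vented and kept at 25° C. for five to seven days before mortality is scored.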

[3] = test system: Cabbage Looper (Trichoplusia ni, TRIPNI); assay: Bioassay on Cabbage Looper (CL), 128-well diet tray assay; conditions: Trichoplusia ni; Cabbage Looper, 128-well diet tray assay; read-out: CL rating
Method in brief: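 Diet-incorporation-free surface assay: 50 μg/cm^2 compound in acetone-water (90:10), dried on diet; 1–5 2nd-instar larvae/well; 8 wells; vented cover; 25° C., 14:10 L:D, 5–7 d; % mortality averaged over wells.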

Compound | YFM rating [1] | pest or weed control at 50 µg/cm2 [2] [%] | pest or weed control at 50 µg/cm2 [3] [%]
O=C(Nc1ccc(-c2nccs2)cc1)c1cc(NC(=O)[C@H]2[C@H](c3cc(Cl)cc(Cl)c3)C2(Cl)Cl)ccc1Cl (relative stereo) [F461, trans-2-Chloro-5-(2,2-dichloro-3-(3,5-dichlorophenyl)cyclopropane-1-carboxamido)-N-(4-(thiazol-2-yl)phenyl)benzamide] | A (80-100) | 50 to 100 | 50 to 100
O=C(Nc1cc(F)c2[nH]ccc2c1)c1cc(NC(=O)[C@H]2[C@H](c3cc(Cl)cc(Cl)c3)C2(Cl)Cl)ccc1Cl (relative stereo) [F462, 2-Chloro-5-(trans)-(2,2-dichloro-3-(3,5-dichlorophenyl)cyclopropane-1-carboxamido)-N-(7-fluoro-1H-indol-5-yl)benzamide] | A (80-100) | 50 to 100 | 50 to 100
Cn1nc(NC(=O)c2cc(NC(=O)[C@H]3[C@H](c4cc(Cl)cc(Cl)c4)C3(Cl)Cl)ccc2Cl)c2c(Cl)cccc21 (relative stereo) [F463, 2-Chloro-N-(4-chloro-1-methyl-1H-indazol-3-yl)-5-(trans)-(2,2-dichloro-3-(3,5-dichlorophenyl)cyclopropane-1-carboxamido)benzamide] | A (80-100) | 50 to 100 | 50 to 100
Cn1ccc2cc(NC(=O)c3cc(NC(=O)[C@H]4[C@H](c5cc(Cl)cc(Cl)c5)C4(Cl)Cl)ccc3Cl)cnc21 (relative stereo) [F464, 2-Chloro-5-(trans)-(2,2-dichloro-3-(3,5-dichlorophenyl)cyclopropane-1-carboxamido)-N-(1-methyl-1H-pyrrolo[2,3-b]pyridin-5-yl)benzamide] | A (80-100) | 50 to 100 | 50 to 100
CC(=O)N(C(C)=O)c1ccc(NC(=O)c2cc(NC(=O)[C@H]3[C@H](c4cc(Cl)cc(Cl)c4)C3(Cl)Cl)ccc2Cl)c(C#N)c1 (relative stereo) [F469, trans-N-(4-(N-acetylacetamido)-2-cyanophenyl)-2-chloro-5-(2,2-dichloro-3-(3,5-dichlorophenyl)cyclopropane-1-carboxamido)benzamide] | A (80-100) | 50 to 100 | 50 to 100
O=C1Cc2cc(NC(=O)c3cc(NC(=O)[C@H]4[C@H](c5cc(Cl)cc(Cl)c5)C4(Cl)Cl)ccc3Cl)ccc2N1 (relative stereo) [F472, 2-Chloro-5-(trans)-(2,2-dichloro-3-(3,5-dichlorophenyl)cyclopropane-1-carboxamido)-N-(2-oxoindolin-5-yl)benzamide] | A (80-100) | 50 to 100 | 50 to 100
CN1CCc2cc(NC(=O)c3cc(NC(=O)[C@H]4[C@H](c5cc(Cl)cc(Cl)c5)C4(Cl)Cl)ccc3Cl)ccc21 (relative stereo) [F473, 2-Chloro-5-(trans)-(2,2-dichloro-3-(3,5-dichlorophenyl)cyclopropane-1-carboxamido)-N-(1-methylindolin-5-yl)benzamide] | A (80-100) | 50 to 100 | 50 to 100
O=C(Nc1cc2cc[nH]c2cn1)c1cc(NC(=O)[C@H]2[C@H](c3cc(Cl)cc(Cl)c3)C2(Cl)Cl)ccc1Cl (relative stereo) [F474, 2-Chloro-5-(trans)-(2,2-dichloro-3-(3,5-dichlorophenyl)cyclopropane-1-carboxamido)-N-(1H-pyrrolo[2,3-c]pyridin-5-yl)benzamide] | A (80-100) | 50 to 100 | 50 to 100
Cn1ncc2cc(NC(=O)c3cc(NC(=O)[C@H]4[C@H](c5cc(Cl)cc(Cl)c5)C4(Cl)Cl)ccc3Cl)cnc21 (relative stereo) [F476, 2-Chloro-5-(trans)-(2,2-dichloro-3-(3,5-dichlorophenyl)cyclopropane-1-carboxamido)-N-(1-methyl-1H-pyrazolo[3,4-b]pyridin-5-yl)benzamide] | A (80-100) | 50 to 100 | 50 to 100
Cc1ccc2c(N)nn(C(=O)c3cc(NC(=O)[C@H]4[C@H](c5cc(Cl)cc(Cl)c5)C4(Cl)Cl)ccc3Cl)c2c1 (relative stereo) [F477, (trans)-N-(3-(3-Amino-6-methyl-1H-indazole-1-carbonyl)-4-chlorophenyl)-2,2-dichloro-3-(3,5-dichlorophenyl)cyclopropane-1-carboxamide] | A (80-100) | 50 to 100 | 50 to 100
Cc1ccc2c(NC(=O)c3cc(NC(=O)[C@H]4[C@H](c5cc(Cl)cc(Cl)c5)C4(Cl)Cl)ccc3Cl)n[nH]c2c1 (relative stereo) [F478, 2-Chloro-5-(trans)-(2,2-dichloro-3-(3,5-dichlorophenyl)cyclopropane-1-carboxamido)-N-(6-methyl-1H-indazol-3-yl)benzamide] | A (80-100) | 50 to 100 | 50 to 100
Nc1ccc2c(c1)CN(C(=O)c1cc(NC(=O)[C@H]3[C@H](c4cc(Cl)cc(Cl)c4)C3(Cl)Cl)ccc1Cl)C2 (relative stereo) [F479, (trans)-N-(3-(5-Aminoisoindoline-2-carbonyl)-4-chlorophenyl)-2,2-dichloro-3-(3,5-dichlorophenyl)cyclopropane-1-carboxamide] | A (80-100) | 50 to 100 | 50 to 100
Cc1cc(N2C(=O)C=CC2=O)ccc1NC(=O)c1cc(NC(=O)[C@H]2[C@H](c3cc(Cl)cc(Cl)c3)C2(Cl)Cl)ccc1Cl (relative stereo) [F480, 2-chloro-5-(trans-2,2-dichloro-3-(3,5-dichlorophenyl)cyclopropane-1-carboxamido)-N-(4-(2,5-dioxo-2,5-dihydro-1H-pyrrol-1-yl)-2-methylphenyl)benzamide] | A (80-100) | 50 to 100 | 50 to 100
O=C(Nc1ccc2scnc2c1)c1cc(NC(=O)[C@H]2[C@H](c3cc(Cl)cc(Cl)c3)C2(Cl)Cl)ccc1Cl (relative stereo) [F482, trans-N-(Benzo[d]thiazol-5-yl)-2-chloro-5-(2,2-dichloro-3-(3,5-dichlorophenyl)cyclopropane-1-carboxamido)benzamide] | A (80-100) | 50 to 100 | 50 to 100
CCOC(=O)c1cc2cc(NC(=O)c3cc(NC(=O)[C@H]4[C@H](c5cc(Cl)cc(Cl)c5)C4(Cl)Cl)ccc3Cl)ccc2[nH]1 (relative stereo) [F483, Ethyl 5-(2-chloro-5-(trans)(2,2-dichloro-3-(3,5-dichlorophenyl)cyclopropane-1-carboxamido)benzamido)-1H-indole-2-carboxylate] | A (80-100) | 50 to 100 | 50 to 100
Cc1c(NC(=O)c2cc(NC(=O)[C@H]3[C@H](c4cc(Cl)cc(Cl)c4)C3(Cl)Cl)ccc2Cl)ccc2[nH]ccc12 (relative stereo) [F485, 2-Chloro-5-(trans)-(2,2-dichloro-3-(3,5-dichlorophenyl)cyclopropane-1-carboxamido)-N-(4-methyl-1H-indol-5-yl)benzamide] | A (80-100) | 50 to 100 | 50 to 100
CC(C)(C)c1cc2cc(NC(=O)c3cc(NC(=O)[C@H]4[C@H](c5cc(Cl)cc(Cl)c5)C4(Cl)Cl)ccc3Cl)ccc2[nH]1 (relative stereo) [F486, N-(2-(tert-Butyl)-1H-indol-5-yl)-2-chloro-5-(trans)-(2,2-dichloro-3-(3,5-dichlorophenyl)cyclopropane-1-carboxamido)benzamide] | A (80-100) | 50 to 100 | 50 to 100
CCn1ccc2cc(NC(=O)c3cc(NC(=O)[C@H]4[C@H](c5cc(Cl)cc(Cl)c5)C4(Cl)Cl)ccc3Cl)ccc21 (relative stereo) [F488, 2-Chloro-5-(trans)-(2,2-dichloro-3-(3,5-dichlorophenyl)cyclopropane-1-carboxamido)-N-(1-ethyl-1H-indol-5-yl)benzamide] | A (80-100) | 50 to 100 | 50 to 100
CN1C(=O)CCc2cc(NC(=O)c3cc(NC(=O)[C@H]4[C@H](c5cc(Cl)cc(Cl)c5)C4(Cl)Cl)ccc3Cl)ccc21 (relative stereo) [F490, 2-chloro-5-(trans)-(2,2-dichloro-3-(3,5-dichlorophenyl)cyclopropane-1-carboxamido)-N-(1-methyl-2-oxo-1,2,3,4-tetrahydroquinolin-6-yl)benzamide] | A (80-100) | 50 to 100 | 50 to 100
CN1CCCc2cc(NC(=O)c3cc(NC(=O)[C@H]4[C@H](c5cc(Cl)cc(Cl)c5)C4(Cl)Cl)ccc3Cl)ccc21 (relative stereo) [F491, 2-Chloro-5-(trans)-(2,2-dichloro-3-(3,5-dichlorophenyl)cyclopropane-1-carboxamido)-N-(1-methyl-1,2,3,4-tetrahydroquinolin-6-yl)benzamide] | A (80-100) | 50 to 100 | 50 to 100
